Experimental findings from patent US9388147B2 (Receptos, Inc., priority 2009, dated 2016) are described below.

A value given as a limit tells only on which side of the number the result lay.

Sequence of S1P1/EDG1 (P21453 whole entry): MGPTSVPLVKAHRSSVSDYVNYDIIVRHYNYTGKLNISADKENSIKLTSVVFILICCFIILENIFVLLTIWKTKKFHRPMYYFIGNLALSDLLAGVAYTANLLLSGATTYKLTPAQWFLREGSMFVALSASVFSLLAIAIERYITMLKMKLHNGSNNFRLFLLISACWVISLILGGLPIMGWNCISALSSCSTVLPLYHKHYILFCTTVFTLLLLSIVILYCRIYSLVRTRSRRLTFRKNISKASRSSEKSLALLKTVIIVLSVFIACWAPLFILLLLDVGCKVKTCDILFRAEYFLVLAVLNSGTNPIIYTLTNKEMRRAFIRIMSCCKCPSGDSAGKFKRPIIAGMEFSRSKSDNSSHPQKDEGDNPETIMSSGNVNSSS

This experiment has as its target S1P1/EDG1 (Homo sapiens, UniProt P21453). The experiment is described as follows: S1P1 CRE-bla CHOK1 reporter assay, inhibition of Forskolin induced cAMP. The settings on record: agonist activity range, S1P1 CRE-bla CHOK1, 2 μM Forskolin; read-out: S1P1 ACTIVITY
Type of experiment: cell-based. A digest of the protocol:
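Read-out is a FRET β-lactamase substrate (2 h, room temperature) after 4 h, 37 °C compound treatment under 2 μM Forskolin in stable S1P1-transfected CRE-bla CHO-K1 cells. Ten-point curves; non-linear regression gives EC50 for inhibition of Forskolin-stimulated cAMP.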
(Reporter assays use an easily measured gene product as a stand-in for the process of interest.)
In the case of `CC(C)Oc1ccc(-c2nc(-c3cccc4c3CC[C@H]4NC(=O)N3CC[C@H](N(C)C)C3)no2)cc1C#N` [Compound 243], the EC50 was 0.5 to 5 nM.

For `CC(C)Oc1ccc(-c2nc(-c3cccc4c3CC[C@@H]4NC(=O)N3CC[C@@H](O)C3)no2)cc1C#N` [Compound 232], the EC50 fell in the range of 0.05 to 0.5 nM.

`CC(C)Oc1ccc(-c2nc(-c3cccc4c3CC[C@H]4NCC(=O)N3CC[C@@H](O)C3)no2)cc1C#N` [Compound 133]: the EC50 was 0.05 to 0.5 nM.

For the molecule `CC(C)Oc1ccc(-c2nc(-c3cccc4c3CC[C@H]4NS(=O)(=O)C3CC3)no2)cc1C#N` [Compound 166], the EC50 was in the range of 0.05 to 0.5 nM.

As to `CC(C)Oc1ccc(-c2nc(-c3cccc4c3CC[C@H]4NCCO)no2)cc1Br` [Compound 101], the EC50 lay within 0.5 to 5 nM.

`CC(C)Oc1ccc(-c2nc(-c3cccc4c3CC[C@H]4NCC(=O)N3CCN(C)CC3)no2)cc1C#N` [Compound 132]: the EC50 lay in the range of 0.5 to 5 nM.

For `CC(C)Oc1ccc(-c2nc(-c3cccc4c3CC[C@H]4O)no2)cc1C(F)(F)F` [Compound 7], the EC50 fell in the range of 0.5 to 5 nM.

Consider `CC(C)Oc1ccc(-c2nc(-c3cccc4c3CCC4NC3CCOCC3)no2)cc1C#N` (racemic) [Compound 23], for which the EC50 lay in the range of 0.5 to 5 nM.

Regarding `CC(C)Oc1ccc(-c2nc(-c3cccc4c3CC[C@@H]4NS(=O)(=O)CCC(=O)O)no2)cc1C#N` [Compound 185], the EC50 was less than 0.05 nM.

On to `CC(C)Oc1ccc(-c2nc(-c3cccc4c3CC[C@@H]4NC(=O)N3CC[C@H](N(C)C)C3)no2)cc1C#N` [Compound 245], for which the EC50 fell in the range of 0.5 to 5 nM.

With `CC(C)Oc1ccc(-c2nc(-c3cccc4c3CC[C@@H]4NC(=O)N3CCNCC3)no2)cc1C#N` [Compound 214], the EC50 is 0.05 to 0.5 nM.

Regarding `COC(=O)CC1CCN(C(=O)N[C@@H]2CCc3c(-c4noc(-c5ccc(OC(C)C)c(C#N)c5)n4)cccc32)CC1` [Compound 225], the EC50 fell in the range of 0.5 to 5 nM.

`CC(C)Oc1ccc(-c2nc(-c3cccc4c3CC[C@H]4N[C@H](C)CO)no2)cc1C#N` [Compound 56, 5-(3-((R)-1-(((R)-1-hydroxypropan-2-yl)amino)-2,3-dihydro-1H-inden-4-yl)-1,2,4-oxadiazol-5-yl)-2-isopropoxybenzonitrile]: the EC50 lay within 0.05 to 0.5 nM.

As to `CC(C)Oc1ccc(-c2nc(-c3cccc4c3CC[C@H]4O)no2)cc1C#N` [Compound 5, (R)-5-(3-(1-hydroxy-2,3-dihydro-1H-inden-4-yl)-1,2,4-oxadiazol-5-yl)-2-isopropoxybenzonitrile], the EC50 is less than 0.05 nM.

In the case of `CC(C)Oc1ccc(-c2nc(-c3cccc4c3CC[C@@H]4NC(=O)CO)no2)cc1C#N` [Compound 137], the EC50 is less than 0.05 nM.

Regarding `CCOC(=O)N[C@@H]1CCc2c(-c3noc(-c4ccc(OC(C)C)c(C#N)c4)n3)cccc21` [Compound 151], the EC50 is 0.5 to 5 nM.

For the molecule `CC(C)Oc1ccc(-c2nc(-c3cccc4c3CC[C@H]4N[C@@H](C)C(=O)O)no2)cc1C#N` [Compound 64], the EC50 was less than 0.05 nM.

`CCOc1ccc(-c2nc(-c3cccc4c3CC[C@@H]4O)no2)cc1C#N` [Compound 4]: the EC50 fell in the range of 0.05 to 0.5 nM.

With `CC(C)Oc1ccc(-c2nc(-c3cccc4c3CC[C@@H]4NS(=O)(=O)CCN3CC[C@@H](O)C3)no2)cc1C#N` [Compound 173], the EC50 fell in the range of 0.5 to 5 nM.

Consider `CCN(CC)C(=O)CN[C@@H]1CCc2c(-c3noc(-c4ccc(OC(C)C)c(C#N)c4)n3)cccc21` [Compound 60], for which the EC50 lay within 0.5 to 5 nM.

Regarding `CC(C)Oc1ccc(-c2nc(-c3cccc4c3CC[C@H]4NCC(=O)N3CC[C@H](O)C3)no2)cc1C#N` [Compound 134], the EC50 lay in the range of 0.05 to 0.5 nM.

Turning to `CC(C)Oc1ccc(-c2nc(-c3cccc4c3CC[C@H]4NC(=O)N3CCOCC3)no2)cc1C#N` [Compound 211], the EC50 was 0.05 to 0.5 nM.

For the molecule `CC(C)Oc1ccc(-c2nc(-c3cccc4c3CC[C@H]4NCC(=O)NCCO)no2)cc1C#N` [Compound 135], the EC50 was in the range of 0.05 to 0.5 nM.

For the molecule `CNC(=O)CS(=O)(=O)N[C@H]1CCc2c(-c3noc(-c4ccc(OC(C)C)c(C#N)c4)n3)cccc21` [Compound 198], the EC50 lay in the range of 0.05 to 0.5 nM.

On to `CC(C)Oc1ccc(C#N)cc1-c1nc(-c2cccc3c2CC[C@H]3N)no1` [Compound 99, (R)-3-(3-(1-amino-2,3-dihydro-1H-inden-4-yl)-1,2,4-oxadiazol-5-yl)-4-isopropoxy benzonitrile], for which the EC50 is more than 5 nM.

As to `CC(C)COc1ccc(-c2nc(-c3cccc4c3CCC4NCCO)no2)cc1C#N` (racemic) [Compound 103, 5-(3-(1-((2-hydroxyethyl)amino)-2,3-dihydro-1H-inden-4-yl)-1,2,4-oxadiazol-5-yl)-2-isobutoxybenzonitrile], the EC50 lay within 0.5 to 5 nM.

`CC(C)Oc1ccc(-c2nc(-c3cccc4c3CC[C@@H]4N(C)CC(=O)O)no2)cc1C#N` [Compound 208]: the EC50 lay within 0.05 to 0.5 nM.

For the molecule `CC(C)Oc1ccc(-c2nc(-c3cccc4c3CCC4NC[C@@H](O)CO)no2)cc1C#N` (mixture of isomers) [Compound 30], the EC50 fell in the range of 0.05 to 0.5 nM.

For the molecule `CC(C)Oc1ccc(-c2nc(-c3cccc4c3CC[C@H]4NC(=O)N3CCC(CO)CC3)no2)cc1C#N` [Compound 217], the EC50 fell in the range of 0.5 to 5 nM.

`CNC(=O)CS(=O)(=O)N[C@@H]1CCc2c(-c3noc(-c4ccc(OC(C)C)c(C#N)c4)n3)cccc21` [Compound 199]: the EC50 is less than 0.05 nM.

Turning to `N#Cc1cc(OC(F)(F)F)cc(-c2nc(-c3cccc4c3CC[C@H]4N)no2)c1` [Compound 93, (R)-3-(3-(1-amino-2,3-dihydro-1H-inden-4-yl)-1,2,4-oxadiazol-5-yl)-5-(trifluoromethoxy)benzonitrile], the EC50 is more than 5 nM.

With `CC(C)Oc1ccc(-c2nc(-c3cccc4c3CC[C@H]4OC(=O)C(C)(C)C)no2)cc1C#N` [Compound 14, (R)-4-(5-(3-cyano-4-isopropoxyphenyl)-1,2,4-oxadiazol-3-yl)-2,3-dihydro-1H-inden-1-yl pivalate], the EC50 is more than 5 nM.

As for `CC(=O)Nc1ccc(S(=O)(=O)NC2CCc3c(-c4noc(-c5ccc(OC(C)C)c(C#N)c5)n4)cccc32)cc1` (stereo in doubt) [Compound 82], the EC50 was more than 5 nM.

As to `CC(C)Oc1cc(-c2nc(-c3cccc4c3CC[C@H]4N)no2)ccc1C#N` [Compound 98, (R)-4-(3-(1-amino-2,3-dihydro-1H-inden-4-yl)-1,2,4-oxadiazol-5-yl)-2-isopropoxy benzonitrile], the EC50 is more than 5 nM.

With `CC(C)Oc1ccc(-c2nc(-c3cccc4c3CC[C@H]4NCCS(C)(=O)=O)no2)cc1C#N` [Compound 125, (R)-2-isopropoxy-5-(3-(1-((2-(methylsulfonyl)ethyl)amino)-2,3-dihydro-1H-inden-4-yl)-1,2,4-oxadiazol-5-yl)benzonitrile], the EC50 lay within 0.05 to 0.5 nM.

On to `N#Cc1cccc(-c2nc(-c3cccc4c3CC[C@H]4N)no2)c1` [Compound 92, (R)-3-(3-(1-amino-2,3-dihydro-1H-inden-4-yl)-1,2,4-oxadiazol-5-yl)benzonitrile], for which the EC50 is more than 5 nM.

For the molecule `CC(C)Oc1ccc(-c2nc(-c3cccc4c3CCC4NC3CCNCC3)no2)cc1C#N` (racemic) [Compound 19, 2-isopropoxy-5-(3-(1-(piperidin-4-ylamino)-2,3-dihydro-1H-inden-4-yl)-1,2,4-oxadiazol-5-yl)benzonitrile], the EC50 was more than 5 nM.

Regarding `CC(C)Oc1ccc(-c2nc(-c3cccc4c3CC[C@@H]4N[C@H](C)CO)no2)cc1C#N` [Compound 55, 5-(3-((S)-1-(((R)-1-hydroxypropan-2-yl)amino)-2,3-dihydro-1H-inden-4-yl)-1,2,4-oxadiazol-5-yl)-2-isopropoxybenzonitrile], the EC50 was 0.05 to 0.5 nM.

With `CC(C)Oc1ccc(-c2nc(-c3cccc4c3CC[C@H]4N)no2)cc1Cl` [Compound 95, (R)-4-(5-(3-chloro-4-isopropoxyphenyl)-1,2,4-oxadiazol-3-yl)-2,3-dihydro-1H-inden-1-amine], the EC50 was more than 5 nM.

As for `CNCCS(=O)(=O)NC1CCc2c(-c3noc(-c4ccc(OC(C)C)c(C#N)c4)n3)cccc21` (stereo in doubt) [Compound 75], the EC50 was in the range of 0.5 to 5 nM.

`CC(C)Oc1ccc(-c2nc(-c3cccc4c3CC[C@H]4N3CC(C(=O)N(C)C)C3)no2)cc1C#N` [Compound 204]: the EC50 fell in the range of 0.05 to 0.5 nM.

Take `CC(C)Oc1ccc(-c2nc(-c3cccc4c3CC[C@H]4NS(=O)(=O)CCN3CCCC3)no2)cc1C#N` [Compound 170]: the EC50 fell in the range of 0.5 to 5 nM.

Consider `CC(C)Oc1ccc(-c2nc(-c3cccc4c3CC[C@@H]4NS(=O)(=O)CC(=O)N3CC(O)C3)no2)cc1C#N` [Compound 189], for which the EC50 was 0.05 to 0.5 nM.

`CC(C)Oc1ccc(-c2nc(-c3cccc4c3CC[C@@H]4NCCF)no2)cc1C#N` [Compound 142]: the EC50 fell in the range of 0.05 to 0.5 nM.

As for `COC(=O)C1CCN(C(=O)N[C@H]2CCc3c(-c4noc(-c5ccc(OC(C)C)c(C#N)c5)n4)cccc32)CC1` [Compound 237], the EC50 lay in the range of 0.05 to 0.5 nM.

With `CC(C)Oc1ccc(-c2nc(-c3cccc4c3CCC4N3CC[C@H](N)C3)no2)cc1C#N` (mixture of isomers) [Compound 32], the EC50 was in the range of 0.5 to 5 nM.

Turning to `CC(C)Oc1ccc(-c2nc(-c3cccc4c3CC[C@H]4NCc3ccccc3)no2)cc1C#N` [Compound 156], the EC50 was 0.5 to 5 nM.

In the case of `CC(C)Oc1ccc(-c2nc(-c3cccc4c3CC[C@H]4NC(=O)N3CCC(CC(=O)O)CC3)no2)cc1C#N` [Compound 228], the EC50 was 0.5 to 5 nM.

Regarding `CC(C)Oc1ccc(-c2nc(-c3cccc4c3CC[C@H]4NS(=O)(=O)CC(=O)N(C)C)no2)cc1C#N` [Compound 194, (R)-2-(N-(4-(5-(3-cyano-4-isopropoxyphenyl)-1,2,4-oxadiazol-3-yl)-2,3-dihydro-1H-inden-1-yl)sulfamoyl)-N,N-dimethylacetamide], the EC50 was less than 0.05 nM.

In the case of `CC(C)Oc1ccc(-c2nc(-c3cccc4c3CC[C@H]4NC(C)C(=O)N(C)C)no2)cc1C#N` (mixture of isomers) [Compound 58], the EC50 lay in the range of 0.5 to 5 nM.

With `CC(C)Oc1ccc(-c2nc(-c3cccc4c3CCC4N[C@@H](C)c3ccccc3)no2)cc1C#N` (stereo in doubt) [Compound 123], the EC50 was more than 5 nM.
